From PubChem BioAssay (NCI)
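Grown in 96-well plates, cells were treated for 48 hours with each compound at five concentrations. Insufficient inhibition: endpoint recorded as highest concentration tested. GI50: concentration for 50% inhibition of growth. TGI: total growth inhibition.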

Columns and labels:
Assay in all cases: growth of human tumour cells (NCI), 48 h
MALME-3M melanoma = tested on: MALME-3M melanoma
NCI-H226 lung = tested on: NCI-H226 lung
TK-10 renal = tested on: TK-10 renal
UACC-62 melanoma = tested on: UACC-62 melanoma
NCI-H460 lung = tested on: NCI-H460 lung
NCI-H23 lung = tested on: NCI-H23 lung
SF-539 CNS = tested on: SF-539 CNS
SK-OV-3 ovarian = tested on: SK-OV-3 ovarian
NCI-H522 lung = tested on: NCI-H522 lung
MDA-MB-231 breast = tested on: MDA-MB-231 breast

Structure (SMILES)	TGI (MALME-3M melanoma)	TGI (NCI-H226 lung)	TGI (TK-10 renal)	TGI (UACC-62 melanoma)	TGI (NCI-H460 lung)	TGI (NCI-H23 lung)	TGI (SF-539 CNS)	TGI (SK-OV-3 ovarian)	TGI (NCI-H522 lung)	GI50 (MALME-3M melanoma)	GI50 (NCI-H226 lung)	GI50 (MDA-MB-231 breast)	TGI (MDA-MB-231 breast)	GI50 (TK-10 renal)	GI50 (UACC-62 melanoma)	GI50 (NCI-H460 lung)	GI50 (NCI-H23 lung)	GI50 (SK-OV-3 ovarian)	GI50 (NCI-H522 lung)	GI50 (SF-539 CNS)
O=C(c1ccccc1)c1c(C(=O)c2ccccc2)c(-c2ccccc2)c2c(-c3ccccc3)sc(-c3ccccc3)c2c1-c1ccccc1	> 100 µM	> 100 µM	> 100 µM	> 100 µM	> 100 µM	> 100 µM	> 100 µM	> 100 µM	> 100 µM											
CCOC(=O)C1C(=O)c2ccccc2CN1Cc1ccccc1 (stereo unspecified)	> 100 µM	> 100 µM	> 100 µM	> 100 µM	> 100 µM	> 100 µM	> 100 µM	> 100 µM	> 100 µM											
CC1(C)OCC(CO)(Nc2nc(N3CC3)nc(N3CC3)n2)CO1	42.1 µM	28.5 µM	67.5 µM	14 µM	29 µM	16.3 µM	27 µM	34.2 µM	33.8 µM											
O=C(O)c1cc2c(cn1)[nH]c1ccccc12	> 100 µM	> 100 µM	> 100 µM	> 100 µM	> 100 µM	> 100 µM	> 100 µM	> 100 µM	> 100 µM											
CC(=O)OCC1OC(n2c(=O)n(-c3ccccc3)c(=O)c3ccccc32)C(OC(C)=O)C(OC(C)=O)C1OC(C)=O (stereo unspecified)	> 100 µM	> 100 µM	> 100 µM	> 100 µM	> 100 µM	> 100 µM	> 100 µM	> 100 µM	> 100 µM											
CN(c1ccccc1)C(c1ccccc1)C(O)c1ccccc1 (stereo unspecified)	31.4 µM		57.1 µM	38.1 µM	36.2 µM	40.4 µM	37.7 µM	52.1 µM	36.9 µM											
c1ccc(N=C2c3ccccc3C3=NCCCN32)cc1	> 100 µM	> 100 µM	> 100 µM	> 100 µM	> 100 µM	> 100 µM	> 100 µM		96.8 µM											
CCN(CC)CCCCCCCNc1c2ccc(Cl)cc2nc2ccc(OC)cc12	4.1 µM	4.42 µM	4.08 µM	4.09 µM	1.67 µM	2.84 µM		3.58 µM	2.83 µM	2.05 µM	1.83 µM	1.48 µM	3.86 µM	0.991 µM	2.04 µM	0.416 µM	1.14 µM	1.41 µM	1.2 µM	
COC(=O)C1=C(O)C(O)=C(C(=O)OC)C1	> 100 µM	> 100 µM	> 100 µM	> 100 µM	> 100 µM	> 100 µM	> 100 µM	> 100 µM	> 100 µM											
COc1cc(/C=C/C(=O)c2ccc(Cl)cc2)ccc1OS(=O)(=O)c1ccc(C)cc1	33.6 µM	27.9 µM		20.3 µM	72.4 µM	43.6 µM	24 µM	> 100 µM	12.2 µM	13.1 µM	12.7 µM	9.02 µM	28 µM		4.93 µM	17.3 µM	13.3 µM	30.1 µM	2.93 µM	11.2 µM
